Test results: US6383771B1, “Enzyme-based assay for determining effects of exogenous and endogenous factors on cellular energy” (Birkmayer Pharmaceuticals, priority 1997, dated 2002)
Several values for one entry are separate records, joined by “and”; a condition that tells them apart may be missing. Equal entries are not always repeated.

Tests used:
[1] = tested on: NADH cytochrome C reductase; assay: NADH cytochrome C reductase assay of whole blood, competitive cyclists before and after oral NADH; assay type: in vivo, human
Experimental: (§1) Enzyme Preparation A 1-mL portion of a whole blood sample obtained from a subject by venipuncture is preserved by addition of a suitable preserving agent such as that provided by a citrate solution. To a 100-μL sample of this citrate blood is added 900 μL of phosphate balanced salt solution (PBS) at pH =7.8. The resulting 1-mL portion of buffer-diluted citrate blood is sonified with an apparatus such as that available from BRANSON at a duty cycle of 40%, output position 3. Sonification is repeated a total of ten times for 10 seconds each. An additional 1-mL volume of PBS is added to the sonified solution. The PBS-diluted solution represents the enzyme preparation utilized for further assay.
(§2) Substrate preparation A 10-mg sample of cytochrome C, obtainable from conventional sources such as Sigma Chemical, St. Louis is dissolved in 9.6 mL of distilled water. To this is added add 200 μL of 0.1 M NaN3 (sodium azide) and 200 μL of PBS (pH 7.8).
(§3) Performance of the enzyme assay A 900-μL volume of cytochrome C solution (reaction substrate) is pipetted into a 1-mL (PMMA) cuvette. The sample is mixed and allowed to incubate for 15 minutes at 37°. A 100-μL volume of enzyme preparation is added to the sample cuvette and mixed thoroughly. The absorption of reduced cytochrome C at 550 nm is measured exactly 60 seconds after addition of the enzyme preparation to the cuvette. The absorption of cytochrome C at 550 nm is again measured after 5 minutes of incubation at 37° C. after the first measurement. […]
(§4) Determination of enzymatic activity The specific activity of the enzyme species is expressed as nanomoles (nmol) of cytochrome C reduced per μL blood per 5 minutes. For quantitative analyses, a calibration curve with 0, 30, 50, 100, 130 nmol reduced cytochrome C concentrations is prepared. For calculation of the enzymatic activity expressed per blood cell, the number of red blood cells, white blood cells and IS platelets are determined. The cell counts of these cells can be determined from the undiluted citrate blood according to standard procedures. […]

[2] = tested on: NADH cytochrome C reductase; assay: NADH cytochrome C reductase assay of whole blood, soccer players before and after oral NADH; assay type: in vivo, human; set-up: key to Enzyme Activity after NADH intake: nmol cytochrome C reduced per µL blood per 5 min
Experimental: as §1, §2, §3, §4

[3] = tested on: NADH cytochrome C reductase; assay: NADH cytochrome C reductase assay, rats before and after oral NADH; assay type: in vivo; set-up: Enzyme Activity after NADH intake: unit not given here
Experimental: as §1, §2, §3
Determination of enzymatic activity The specific activity of the enzyme species is expressed as nanomoles (nmol) of cytochrome C reduced per μL blood per 5 minutes. For quantitative analyses, a calibration curve with 0, 30, 50, 100, 130 nmol reduced cytochrome C concentrations is prepared. For calculation of the enzymatic activity expressed per blood cell, the number of red blood cells, white blood cells and IS platelets are determined. The cell counts of these cells can be determined from the undiluted citrate blood according to standard procedures.

[4] = Performance quality: continuous attention, vigilance, cognitrone (Vienna Test system); assay type: in vivo, human; set-up: Continuous attention: DRT (mean value), after NADH / Cognitrone: DRT (mean), after NADH / Vigilance: correct reactions, after NADH / Vigilance: DRT (mean), after NADH: unit not given here
Experimental: (§5) The performance quality, reaction speed and constancy of attention also was tested in these athletes. The performance quality was assessed by the accuracy with which a task was done, i.e., generally in terms of the number of correct identifications of stimuli. Methods used for determination of performance quality were measurement of the continuous attention, vigilance, and the cognitrone program of the Vienna Test system (Dr. Schuhfried Ges.m.b.H., Austria). For examination of the physical performance, a bicycle ergometer (Oxycon-Alpha, Jager Inc., Vienna, Austria) was used. […] The volume and the intensity of the training and exercise program of the athletes was kept constant over that period.

[5] = Physical performance by spiro-ergometry (bicycle ergometer); assay type: in vivo, human; settings: 4 weeks
Experimental: as §5, with “period. […] Data reflecting this is presented below in Tables 2-4.” for “period.”

[6] = Lactate blood levels after maximum performance; assay type: in vivo, human
Experimental: as §5, with “period. […] Data reflecting this is presented below in Tables 2-4.” for “period.”

[7] = Physical performance on the treadmill or bicycle ergometer, soccer players; assay type: in vivo, human; settings: 5-mg tablet NADH daily, one month
Experimental: A study similar to that of Example 3 was performed with a European soccer team. […] This increased energy production was confirmed by improved physical performance on the treadmill or bicycle ergometer.

complex I = settings: metabolite of MPTP; cited from earlier work
[8] = tested on: NADH cytochrome C reductase; settings: certain brain areas; causing Parkinsonian-like symptoms; cited from earlier work
[9] = soccer players, per subject, one 5-mg tablet NADH daily for one month
[10] = rats, per animal, one 2.5-mg tablet NADH daily for three months
[11] = 4 weeks after intake of one 5-mg tablet NADH per day, n = 17
[12] = 4 weeks of one 5-mg tablet NADH per day vs before, n = 17
[13] = after NADH, 1 tablet NADH (5 mg) per day
[14] = after 4 weeks of one 5-mg tablet NADH per day (n = 17)
[15] = after vs before 4 weeks of one 5-mg tablet NADH per day (n = 17)

Q: Which “% Difference in enzyme activity (after vs before NADH intake)” value (from here on “% Difference in enzyme activity”) ([1]; competitive cyclists, per subject, one 5-mg tablet NADH daily for one month) does the source give for `NC(=O)C1=CN([C@@H]2O[C@H](COP(=O)(O)OP(=O)(O)OC[C@H]3O[C@@H](n4cnc5c(N)ncnc54)[C@H](O)[C@@H]3O)[C@@H](O)[C@H]2O)C=CC1` [NADH, reduced form of nicotinamide adenine dinucleotide] here?
A: 50.00% (4×) and 57.10% and 46.70% (2×) and 76.90% and 47.10% (3×) and 64.30% and 60.00% and 61.50% and 53.30% and 58.30% and 41.20%

Q: What about the “Enzyme Activity after NADH intake” value ([1]; competitive cyclists, per subject, one 5-mg tablet NADH daily for one month, activity expressed as nmol cytochrome C reduced per μL blood per 5 minutes) of the same molecule?
A: 2.1 (2×) and 2.2 (3×) and 2.3 (3×) and 2.4 (4×) and 2.5 (3×) and 2.7 and 1.9

Q: And the “endogenous NADH cytochrome C reductase activity” value ([1]; in nineteen of the twenty athletes, 5-mg tablet daily, one month)?
A: increase

Q: And the “endogenous NADH cytochrome C reductase activity” value ([2]; fifteen soccer players, 5-mg tablet daily, one month)?
A: increase

Q: And the “% Difference in enzyme activity” value [2, 9]?
A: 20.00% (4×) and 8.30% and −8.30% and 0.00% (2×) and 33.00% and 16.00% and 7.10% (2×) and 162% and 75% and 6.60%

Q: What about the “Enzyme Activity after NADH intake” value [2, 9] of the same molecule?
A: 1.2 and 1.3 (2×) and 1.6 (5×) and 1.4 (2×) and 1.1 and 1.5 (2×) and 2.1 (2×)

Q: And the enzymatic activity ([3]; all test animals (rats), 2.5-mg tablet daily, three months)?
A: increase

Q: And the “% Difference in enzyme activity” value [3, 10]?
A: 17.1% and 13.5% (2×) and 11.4% and 7.5% and 13.8% (2×) and 20.0% and 9.6% and 12.5%

Q: And the “Enzyme Activity after NADH intake” value [3, 10]?
A: 0.41 (3×) and 0.42 (2×) and 0.39 and 0.43 (2×) and 0.45 (2×)

Q: And the “Cognitrone: Correct reactions, after NADH” value [4, 11]?
A: 190.10

Q: What about the “Cognitrone: DRT (mean), after NADH” value [4, 11] of the same molecule?
A: 2.09

Q: What about the “Continuous attention: DRT (mean value), after NADH” value [4, 11] of the same molecule?
A: 0.81

Q: What about the “Continuous attention: Dispersion, after NADH” value [4, 11] of the same molecule?
A: 0.17

Q: What about the “Continuous attention: correct reactions, after NADH” value [4, 11] of the same molecule?
A: 118.80

Q: What about the “Continuous attention: missed reactions, after NADH” value [4, 11] of the same molecule?
A: 1.24

Q: And the “Vigilance: DRT (mean), after NADH” value [4, 11]?
A: 0.55

Q: What about the “Vigilance: Dispersion, after NADH” value [4, 11] of the same molecule?
A: 0.11

Q: And the “Vigilance: correct reactions, after NADH” value [4, 11]?
A: 97.88

Q: And the “Vigilance: incorrect reactions, after NADH” value [4, 11]?
A: 1.24

Q: And the “Cognitrone: Correct reactions, % alteration per person” value [4, 12]?
A: 2.98%

Q: And the “Cognitrone: DRT (mean), % alteration per person” value [4, 12]?
A: −16.05%

Q: What about the “Cognitrone: working time (min), % alteration per person” value [4, 12] of the same molecule?
A: −14.36%

Q: And the “Continuous attention: DRT (mean value), % alteration per person” value [4, 12]?
A: −6.48%

Q: What about the “Continuous attention: Dispersion, % alteration per person” value [4, 12] of the same molecule?
A: −11.59%

Q: And the “Continuous attention: correct reactions, % alteration per person” value [4, 12]?
A: 1.42%

Q: And the “Continuous attention: incorrect reactions, absolute alteration per person” value [4, 12]?
A: −1.12

Q: And the “Continuous attention: missed reactions, absolute alteration per person” value [4, 12]?
A: −1.41

Q: And the “Vigilance: DRT (mean), % alteration per person” value [4, 12]?
A: 7.79%

Q: What about the “Vigilance: Dispersion, % alteration per person” value [4, 12] of the same molecule?
A: 4.79%

Q: What about the “Vigilance: correct reactions, % alteration per person” value [4, 12] of the same molecule?
A: 0.01%

Q: And the “Vigilance: incorrect reactions, absolute alteration per person” value [4, 12]?
A: −0.65

Q: And the “Vigilance: missed reactions, absolute alteration per person” value [4, 12]?
A: 0.24

Q: And the mental performance ([4]; the nineteen athletes with increased enzyme activity, 5 mg NADH daily, 4 weeks)?
A: improved

Q: And the “Hfmax, mean” value [5, 13]?
A: 180.00

Q: What about the “Rmax, mean” value [5, 13] of the same molecule?
A: 1.00

Q: And the “VO2Max, mean” value [5, 13]?
A: 4.98

Q: What about the “VO2Max/kg, mean” value [5, 13] of the same molecule?
A: 71.20

Q: What about the “Vmax, mean” value [5, 13] of the same molecule?
A: 163.00

Q: What about the “Wmax (maximum performance), mean” value [5, 13] of the same molecule?
A: 340.00

Q: What about the “Wmax/kg, mean” value [5, 13] of the same molecule?
A: 4.90

Q: What about the physical performance ([5]; the nineteen athletes with increased enzyme activity, 5 mg NADH daily) of the same molecule?
A: improved

Q: And the “Lactate Level 1 min. after maximum performance, after NADH, mean” value [6, 14]?
A: 9.0

Q: And the “Lactate Level 3 min. after maximum performance, after NADH, mean” value [6, 14]?
A: 7.4

Q: And the “Lactate Level 1 min. after maximum performance, Differences in percent, Dmax” value [6, 15]?
A: 22.2%

Q: And the “Lactate Level 1 min. after maximum performance, Differences in percent, Dmean” value [6, 15]?
A: 10.0%

Q: And the “Lactate Level 1 min. after maximum performance, Differences in percent, Dmed” value [6, 15]?
A: 9.6%

Q: What about the “Lactate Level 1 min. after maximum performance, Differences in percent, Dmin” value [6, 15] of the same molecule?
A: −7.3%

Q: What about the “Lactate Level 3 min. after maximum performance, Differences in percent, Dmax” value [6, 15] of the same molecule?
A: 70.3%

Q: And the “Lactate Level 3 min. after maximum performance, Differences in percent, Dmean” value [6, 15]?
A: 17.2%

Q: What about the “Lactate Level 3 min. after maximum performance, Differences in percent, Dmed” value [6, 15] of the same molecule?
A: −3.7%

Q: And the “Lactate Level 3 min. after maximum performance, Differences in percent, Dmin” value [6, 15]?
A: −22.5%

Q: And the “physical performance on the treadmill or bicycle ergometer” value [7]?
A: improved

Q: With `C[n+]1ccc(-c2ccccc2)cc1` [MPP^+, 1-methyl-4-phenyl-pyridine] as the molecule, how does the “effect on complex I in the ETC” value (complex I) read?
A: inhibits

Q: For `CN1CC=C(c2ccccc2)CC1` [MPTP, 1-methyl-4-phenyl-1,2,3,6-tetrahydropyridine], which “effect on NADH cytochrome C reductase” value [8] is on record?
A: irreversibly inhibits and destroys
